The subject of one data set is Raji cells. Put plainly: cells. In kind it is cell-based, human. The conditions noted are these: 100 nM for 72 h.
The test system of the next data set is MOLM14 xenografts. Nature of the data set: In vivo tumorigenic assay using xenografts. Further details: species or system NOD/SCID mice. As to conditions: 2 mg/kg intraperitoneally three times per week, two weeks. As to the method:
Six-week-old male NOD.CB17-Prkdc^scid/J (NOD/SCID) mice (Jackson Labs, Bar Harbor, Me., USA) were used as the human-in-mouse xeno-transplantation model. MOLM14 cells (1×10^7 cells) were injected into the subcutaneous space on the left flank of the mice. Once xenografts reached a size of 100 mm^3, Brusatol and analogs (14, 15, 26, 31) at 2 mg/kg body weight or PBS were injected intraperitoneally three times per week. Body weight and tumor size were monitored before every injection. After treatment for two weeks, the mice were euthanized by CO2 inhalation and the tumors were carefully excised. The tumor volume (mm^3) was measured and calculated using the formula (a×b×b)/2 (a, the largest diameter of two measurements; b, the smallest diameter of two measurements).

The subject of another data set is NOD/SCID mice. Nature of the data set: In vivo toxicity test. As to conditions: 24 days; for survival: 4 mice per group. The procedure:
[…]; 4 mice per group) were intraperitoneally injected with a maximum dose of […] of Brusatol, #15 or #26 compound every other day (three times per week). The survival rate was recorded to monitor the tolerance of the compounds in these mice.
[…]. Six-week-old male NOD.CB17PrkdcSCID/J (NOD/SCID) mice (Jackson Labs, Bar Harbor, Me., USA; 4 mice per group) were intraperitoneally injected with a dose of 5 mg/kg of one of three compounds—brusatol, 15, or 26—every other day, three times per week. The mice were monitored and euthanized after 24 days of treatment. […]. […] […].

The nature of data set [1]: Stability in simulated gastric fluid.
The nature of data set [2]: Stability in simulated intestinal fluid.
In data set [3] the test system is 13 cell lines representing a range of hematologic malignancies. Put plainly: Cell viability in panel of hematologic malignancy derived cell lines. As to conditions: 100 nM, 72 hours.
Procedure: Cell viability was determined after 72 hours by detecting luminescence. ALL, acute lymphoblastic leukemia; BL, Burkitt's lymphoma; DLBCL, diffuse large B-cell lymphoma; MCL, mantle cell lymphoma; AML, acute myeloid leukemia; MM, multiple myeloma; LCLs, lymphoblastoid cell lines.
(§1) 5000 cells as indicated were cultured in 96-well plate with 100 μl of media. On the next day, Brusatol or associated analogs were added once to the cells without media change. After treatment, the cells were incubated with 100 μl buffer for 10 minutes at room temperature following the instructions of CellTiter-Glo kit (Promega, Madison, Wis.). Luminescence was detected using a multi-mode reader Cytation 5 (BioTek, Winooski, Vt.). Brusatol or its analogs are dissolved in 100% ethanol and diluted in 1×PBS for treatment. Two independent experiments done in duplicates were performed.
The nature of data set [4]: MetID profile in mouse liver microsomes. The data set is classed as in vitro ADME. The conditions noted are these: 60 min of incubation. As to the method:
In order to determine if 26 induces liver microsomal metabolism changes, the MetID profile of 26 in mouse liver microsomes was investigated under the same conditions as for brusatol. […] However, 87% of 26 (area %) was detected after 60 min of incubation while five identified metabolites were all in relatively small percentages.
(Liver microsomes are vesicles of endoplasmic reticulum, rich in cytochrome P450 enzymes.)

For data set [5] the following is noted: 60 min.
The conditions of data set [6]: 60 min. This is another data set of the same source.
Experiment in data set [7]: not given
This is another data set of the same source.

The subject of data set [8] is MOLT-4, SU-DHL-6, SU-DHL-10, RPMI-8226, and LCL1. Put plainly: Cell viability in five additional cell lines. As to conditions: MOLT-4, SU-DHL-6, SU-DHL-10, RPMI-8226, LCL1.
Procedure: as §1
To investigate their inhibitory activities on the growth of EBV-associated lymphomas and other types of lymphomas, conjugates were first investigated for their effects on the viability of Raji cells, a Burkitt's lymphoma (BL) cell line, when treated at 100 nM for 72 h. […] These cell lines represent the cell models of a range of hematologic malignancies.
The mark [9] stands for this setting: 5 mg/kg intraperitoneally every other day.
Where [10] appears, read: 10 mg/kg intraperitoneally every other day.

These results are taken from patent US20230151021A1, “Compounds and Compositions for Treating Hematologic Malignancies” (priority 2020, published 2023).

The structures appear in SMILES notation. Where two headings read alike, the source gives them in different places.

Consider `COC(=O)[C@@]12OC[C@]34C([C@@H](O)[C@@H]1O)[C@@]1(C)CC(=O)C(OC(=O)CNC(=O)OC(C)(C)C)=C(C)[C@@H]1C[C@H]3OC(=O)[C@H](OC(=O)C=C(C)C)[C@@H]24` (stereo partly drawn) [Compound 15, methyl (1R,2S,3S,3aS,3a1R,4R,6aR,7aR,11aS)-9-(((tert-butoxycarbonyl)glycyl)oxy)-1,2-dihydroxy-8,11a-dimethyl-4-((3-methylbut-2-enoyl)oxy)-5,10-dioxo-1,4,5,6a,7,7a,10,11,11a,11b-decahydro-2H-3,3a1-(epoxymethano)dibenzo[de,g]chromene-3(3aH)-carboxylate], for which the “activity on viability of Raji cells (in words)” value in the data set with Raji cells is “moderate inhibition”. For the same compound, the “tumor size response (in words)” value in the data set with MOLM14 xenografts was “strong and rapid inhibitory response”. In addition, in the data set with NOD/SCID mice (setting [9]), the “mice survived (of four)” value is “two” and the survival turned out to be 50%. In the data set with NOD/SCID mice (setting [10]), the “toxicity in vivo (in words)” value was “obviously lethal for the majority of mice within the first 4 days” and the survival was found to be 0%. Moreover, the “Stability in simulated gastric fluid (% at 4 h)” value in data set [1] is given as 25%. In [2], the “Stability in simulated intestinal fluid (% at 4 h)” value was 42%. Moreover, in data set [3], the “inhibition of cell viability (in words)” value is listed as “significantly inhibit cell viability”.

For `COC(=O)[C@@]12OC[C@]34C([C@@H](O)[C@@H]1O)[C@@]1(C)CC(=O)C(OC(=O)C[C@H](C)N)=C(C)[C@@H]1C[C@H]3OC(=O)[C@H](OC(=O)C=C(C)C)[C@@H]24` (stereo partly drawn) [Compound 26, methyl (1R,2S,3S,3aS,3a1R,4R,6aR,7aR,11aS)-9-(((S)-3-aminobutanoyl)oxy)-1,2-dihydroxy-8,11a-dimethyl-4-((3-methylbut-2-enoyl)oxy)-5,10-dioxo-1,4,5,6a,7,7a,10,11,11a,11b-decahydro-2H-3,3a1-(epoxymethano)dibenzo[de,g]chromene-3(3aH)-carboxylate], the “Stability in simulated gastric fluid (% at 4 h)” value is reported as 97%. Also, in the data set on NOD/SCID mice (setting [9]), the “mice survived (of four)” value is on record as “four” and the “toxicity in vivo (in words)” value was “did not show any obvious signs of toxicity”. Further, the “toxicity in vivo (in words)” value in the data set with NOD/SCID mice (setting [10]) is listed as “did not show any obvious signs of toxicity”. Further, in data set [4], the “parent detected after incubation in mouse liver microsomes (area %)” value is given as 87%. The “percentage of brusatol converted from 26, human plasma” value in data set [5] was found to be 47%. Besides, in data set [6], the “percentage of brusatol converted from 26, rat plasma” value is 60%. Moreover, the “Stability in simulated intestinal fluid (% at 4 h)” value in [7] is 76%.

For the compound `COC(=O)[C@@]12OC[C@]34C([C@@H](O)[C@@H]1O)[C@@]1(C)CC(=O)C(OCC(=O)NCCN)=C(C)[C@@H]1C[C@H]3OC(=O)[C@H](OC(=O)C=C(C)C)[C@@H]24` (stereo partly drawn) [Compound 40, methyl (1R,2S,3S,3aS,3a1R,4R,6aR,7aR,11aS)-9-(2-((2-aminoethyl)amino)-2-oxoethoxy)-1,2-dihydroxy-8,11a-dimethyl-4-((3-methylbut-2-enoyl)oxy)-5,10-dioxo-1,4,5,6a,7,7a,10,11,11a,11b-decahydro-2H-3,3a1-(epoxymethano)dibenzo[de,g]chromene-3(3aH)-carboxylate], the “activity on viability of Raji cells (in words)” value in the data set with Raji cells is listed as “moderate activity”. For the same compound, the “activity on five additional cell lines (in words)” value in [8] is given as “moderate to good activities”.
